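Protocol summary: plate cells (96-well), add compound at 5 concentrations, incubate 48 h, interpolate endpoints linearly. GI50 = concentration required for 50% inhibition of growth.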 Calls of active or inactive are those of the source. No stated cut-off is given here; in the data, active = GI50 up to about 1.1 µM and inactive = higher.
Columns and labels:
Experiment in all cases: DTP human tumour cell line panel, 48 h
786-0 = tested on: 786-0
A498 = tested on: A498
A549 = tested on: A549
ACHN = tested on: ACHN
CCRF-CEM = tested on: CCRF-CEM
COLO 205 = tested on: COLO 205
EKVX = tested on: EKVX
HCC 2998 = tested on: HCC 2998
HCT-116 = tested on: HCT-116
HCT-15 = tested on: HCT-15
HL-60 = tested on: HL-60
HOP-62 = tested on: HOP-62
HOP-92 = tested on: HOP-92
HT-29 = tested on: HT-29
Hs-578T = tested on: Hs-578T
IGROV-1 = tested on: IGROV-1
K562 = tested on: K562
KM12 = tested on: KM12
LOX IMVI = tested on: LOX IMVI
M14 = tested on: M14
MCF7 = tested on: MCF7
MDA-MB-231 = tested on: MDA-MB-231
MDA-MB-435 = tested on: MDA-MB-435
MDA-N = tested on: MDA-N
MOLT-4 = tested on: MOLT-4
Malme-3M = tested on: Malme-3M
NCI-H226 = tested on: NCI-H226
NCI-H23 = tested on: NCI-H23
NCI-H522 = tested on: NCI-H522
NCI/ADR-RES = tested on: NCI/ADR-RES
OVCAR-3 = tested on: OVCAR-3
OVCAR-4 = tested on: OVCAR-4
OVCAR-5 = tested on: OVCAR-5
OVCAR-8 = tested on: OVCAR-8
PC-3 = tested on: PC-3
RPMI-8226 = tested on: RPMI-8226
RXF 393 = tested on: RXF 393
SF-295 = tested on: SF-295
SF-539 = tested on: SF-539
SK-MEL-2 = tested on: SK-MEL-2
SK-MEL-5 = tested on: SK-MEL-5
SK-OV-3 = tested on: SK-OV-3
SN12C = tested on: SN12C
T47D = tested on: T47D
TK-10 = tested on: TK-10
U-251 = tested on: U-251
UACC-257 = tested on: UACC-257
UACC-62 = tested on: UACC-62
UO-31 = tested on: UO-31
CAKI-1 = tested on: CAKI-1
DU-145 = tested on: DU-145
NCI-H460 = tested on: NCI-H460
SF-268 = tested on: SF-268
SK-MEL-28 = tested on: SK-MEL-28
SNB-19 = tested on: SNB-19
SNB-75 = tested on: SNB-75
SR = tested on: SR
SW-620 = tested on: SW-620

`COC(=O)c1c2c(cc3c1CC1(C3)Cc3cc4c(c(C(=O)OC)c3C1)CCCC4)CCCC2` was tested. Which GI50 (786-0) did it give?
Its GI50 is > 100 µM (inactive).

What about the GI50 (A498) of the same compound?
Its GI50 is > 100 µM (inactive).

What about the GI50 (A549) of the same compound?
Its GI50 is > 100 µM (inactive).

And the GI50 (ACHN)?
Its GI50 is > 100 µM (inactive).

What about the GI50 (CCRF-CEM) of the same compound?
Its GI50 is 30.5 µM (inactive).

What about the GI50 (COLO 205) of the same compound?
The GI50 was > 100 µM (inactive).

And the GI50 (EKVX)?
Its GI50 is > 100 µM (inactive).

And the GI50 (HCC 2998)?
The GI50 was > 100 µM (inactive).

And the GI50 (HCT-116)?
The GI50 was > 100 µM (inactive).

What about the GI50 (HCT-15) of the same compound?
The GI50 was greater than 100 µM.

What about the GI50 (HL-60) of the same compound?
Its GI50 is 24.2 µM (inactive).

And the GI50 (HOP-62)?
Its GI50 is > 100 µM (inactive).

What about the GI50 (HOP-92) of the same compound?
Its GI50 is > 100 µM (inactive).

What about the GI50 (HT-29) of the same compound?
Its GI50 is > 100 µM (inactive).

What about the GI50 (Hs-578T) of the same compound?
The GI50 was > 100 µM (inactive).

And the GI50 (IGROV-1)?
Its GI50 is > 100 µM (inactive).

And the GI50 (K562)?
The GI50 was 43 µM (inactive).

What about the GI50 (KM12) of the same compound?
The GI50 was > 100 µM (inactive).

What about the GI50 (LOX IMVI) of the same compound?
The GI50 was > 100 µM (inactive).

What about the GI50 (M14) of the same compound?
Its GI50 is > 100 µM (inactive).

And the GI50 (MCF7)?
Its GI50 is > 100 µM (inactive).

And the GI50 (MDA-MB-231)?
The GI50 was > 100 µM (inactive).

And the GI50 (MDA-MB-435)?
The GI50 was > 100 µM (inactive).

What about the GI50 (MDA-N) of the same compound?
The GI50 was > 100 µM (inactive).

And the GI50 (MOLT-4)?
Its GI50 is 57.5 µM (inactive).

What about the GI50 (Malme-3M) of the same compound?
The GI50 was > 100 µM (inactive).

What about the GI50 (NCI-H226) of the same compound?
The GI50 was > 100 µM (inactive).

And the GI50 (NCI-H23)?
Its GI50 is > 100 µM (inactive).

What about the GI50 (NCI-H522) of the same compound?
Its GI50 is > 100 µM (inactive).

What about the GI50 (NCI/ADR-RES) of the same compound?
Its GI50 is > 100 µM (inactive).

What about the GI50 (OVCAR-3) of the same compound?
The GI50 was > 100 µM (inactive).

What about the GI50 (OVCAR-4) of the same compound?
Its GI50 is > 100 µM (inactive).

What about the GI50 (OVCAR-5) of the same compound?
The GI50 was > 100 µM (inactive).

What about the GI50 (OVCAR-8) of the same compound?
Its GI50 is > 100 µM (inactive).

And the GI50 (PC-3)?
The GI50 was 3.94 µM (inactive).

What about the GI50 (RPMI-8226) of the same compound?
Its GI50 is 49.8 µM (inactive).

And the GI50 (RXF 393)?
Its GI50 is > 100 µM (inactive).

And the GI50 (SF-295)?
Its GI50 is > 100 µM (inactive).

What about the GI50 (SF-539) of the same compound?
The GI50 was > 100 µM (inactive).

What about the GI50 (SK-MEL-2) of the same compound?
Its GI50 is 1.55 µM (inactive).

What about the GI50 (SK-MEL-5) of the same compound?
Its GI50 is 53.3 µM (inactive).

And the GI50 (SK-OV-3)?
The GI50 was > 100 µM (inactive).

What about the GI50 (SN12C) of the same compound?
Its GI50 is > 100 µM (inactive).

What about the GI50 (T47D) of the same compound?
The GI50 was > 100 µM (inactive).

What about the GI50 (TK-10) of the same compound?
Its GI50 is > 100 µM (inactive).

What about the GI50 (U-251) of the same compound?
Its GI50 is > 100 µM (inactive).

What about the GI50 (UACC-257) of the same compound?
The GI50 was > 100 µM (inactive).

And the GI50 (UACC-62)?
Its GI50 is > 100 µM (inactive).

What about the GI50 (UO-31) of the same compound?
Its GI50 is 0.381 µM (active).

`O/N=C1/CCCCC1NO` (centres undefined) was tested. Which GI50 (786-0) did it give?
Its GI50 is > 100 µM (inactive).

What about the GI50 (A549) of the same compound?
Its GI50 is > 100 µM (inactive).

And the GI50 (ACHN)?
Its GI50 is > 100 µM (inactive).

And the GI50 (CAKI-1)?
The GI50 was > 100 µM (inactive).

What about the GI50 (CCRF-CEM) of the same compound?
Its GI50 is > 100 µM (inactive).

And the GI50 (COLO 205)?
Its GI50 is > 100 µM (inactive).

And the GI50 (DU-145)?
Its GI50 is > 100 µM (inactive).

What about the GI50 (EKVX) of the same compound?
Its GI50 is > 100 µM (inactive).

What about the GI50 (HCC 2998) of the same compound?
The GI50 was > 100 µM (inactive).

And the GI50 (HCT-116)?
The GI50 was > 100 µM (inactive).

What about the GI50 (HCT-15) of the same compound?
Its GI50 is greater than 100 µM.

And the GI50 (HL-60)?
Its GI50 is > 100 µM (inactive).

What about the GI50 (HOP-62) of the same compound?
Its GI50 is > 100 µM (inactive).

And the GI50 (HT-29)?
Its GI50 is > 100 µM (inactive).

What about the GI50 (Hs-578T) of the same compound?
Its GI50 is > 100 µM (inactive).

And the GI50 (IGROV-1)?
Its GI50 is > 100 µM (inactive).

What about the GI50 (K562) of the same compound?
The GI50 was > 100 µM (inactive).

What about the GI50 (KM12) of the same compound?
Its GI50 is > 100 µM (inactive).

And the GI50 (LOX IMVI)?
Its GI50 is > 100 µM (inactive).

What about the GI50 (M14) of the same compound?
The GI50 was > 100 µM (inactive).

What about the GI50 (MCF7) of the same compound?
The GI50 was > 100 µM (inactive).

And the GI50 (MDA-MB-231)?
The GI50 was > 100 µM (inactive).

And the GI50 (MDA-MB-435)?
The GI50 was > 100 µM (inactive).

And the GI50 (MDA-N)?
The GI50 was > 100 µM (inactive).

And the GI50 (MOLT-4)?
The GI50 was > 100 µM (inactive).

And the GI50 (Malme-3M)?
The GI50 was > 100 µM (inactive).

What about the GI50 (NCI-H226) of the same compound?
The GI50 was > 100 µM (inactive).

What about the GI50 (NCI-H23) of the same compound?
Its GI50 is > 100 µM (inactive).

And the GI50 (NCI-H460)?
The GI50 was > 100 µM (inactive).

And the GI50 (NCI/ADR-RES)?
Its GI50 is > 100 µM (inactive).

What about the GI50 (OVCAR-3) of the same compound?
The GI50 was > 100 µM (inactive).

And the GI50 (OVCAR-4)?
Its GI50 is > 100 µM (inactive).

What about the GI50 (OVCAR-5) of the same compound?
Its GI50 is > 100 µM (inactive).

What about the GI50 (OVCAR-8) of the same compound?
Its GI50 is > 100 µM (inactive).

What about the GI50 (PC-3) of the same compound?
The GI50 was > 100 µM (inactive).

What about the GI50 (RPMI-8226) of the same compound?
The GI50 was > 100 µM (inactive).

What about the GI50 (RXF 393) of the same compound?
Its GI50 is > 100 µM (inactive).

And the GI50 (SF-268)?
The GI50 was > 100 µM (inactive).

And the GI50 (SF-295)?
Its GI50 is > 100 µM (inactive).

And the GI50 (SF-539)?
Its GI50 is > 100 µM (inactive).

And the GI50 (SK-MEL-28)?
Its GI50 is > 100 µM (inactive).

What about the GI50 (SK-MEL-2) of the same compound?
The GI50 was > 100 µM (inactive).

What about the GI50 (SK-MEL-5) of the same compound?
The GI50 was > 100 µM (inactive).

What about the GI50 (SK-OV-3) of the same compound?
Its GI50 is > 100 µM (inactive).

And the GI50 (SN12C)?
The GI50 was > 100 µM (inactive).

And the GI50 (SNB-19)?
The GI50 was > 100 µM (inactive).

What about the GI50 (SNB-75) of the same compound?
Its GI50 is > 100 µM (inactive).

And the GI50 (SR)?
The GI50 was > 100 µM (inactive).

And the GI50 (SW-620)?
The GI50 was > 100 µM (inactive).

And the GI50 (T47D)?
The GI50 was > 100 µM (inactive).

And the GI50 (TK-10)?
The GI50 was > 100 µM (inactive).

What about the GI50 (U-251) of the same compound?
Its GI50 is > 100 µM (inactive).

And the GI50 (UACC-257)?
Its GI50 is > 100 µM (inactive).

What about the GI50 (UACC-62) of the same compound?
The GI50 was > 100 µM (inactive).

And the GI50 (UO-31)?
The GI50 was > 100 µM (inactive).
